The source of these data is patent US11952364B2, “TRK inhibitors useful as anticancer drugs” (TYLIGAND BIOSCIENCE (SHANGHAI) LIMITED, priority 2018, dated 2024).

SMILES strings stand for the structures. Like-named read-outs stand apart in the source and are kept apart here.

The test has as its system KM12 cells. The experiment in a line: Proliferation of KM12 cells (CellTiter-Glo). It counts as cell-based, human. From the text:
KM12 is a human colon cancer cell line in which NTRK1 is highly expressed, and gene fusion occurs with TPM3 to form TPM3-NTRK1. • [Test method]: Promega's CellTiter-Glo® Luminescent Cell Viability Assay kit was used to evaluate the inhibitory activity of the compounds on the proliferation of KM12 cells. • [Instrument]: Spectramax M3 multifunctional microplate reader from Molecular Devices. • [Test materials]: KM12 cell line (ATCC, item number CRL-12496), 96-well transparent flat-bottomed black-walled cell culture plate (Corning, item number #3603), RPMI-1640 media (GE, cat #SH30027.01), Fetal Bovine Serum FBS (Thermo Fisher, cat #10099-141), CellTiter-Glo® Luminescent Cell Viability Assay Kit (Promega, cat #G7572), PBS (Solarbio, cat #P1020), Trypsin (Thermo Fisher, cat #25200072), DMSO (Sigma, cat #D2650). • [Experimental procedure]: When resuscitating KM12 cells, the freezing tube was quickly shaken in a 37° C. water bath to melt within 1 minute. The thawed cell suspension was mixed uniformly with RPMI1640 medium containing 10% FBS, centrifuged at 1000 rpm for 5 minutes, and the supernatant discarded. 5 mL of complete medium (RPMI1640 medium with 10% FBS) was taken to resuspend the cell pellets, charged into a cell culture flask with a bottom area of 25 cm^2, and incubated in a cell incubator at 37° C., 95% humidity and 5% CO2. Cells were allowed to passage when the cell confluence rate reached about 80%. For cell passage, the old medium was discarded, and the cells were washed twice with PBS, and 0.5 mL trypsin was added to digest the cells. Upon dispersing into single cells and exfoliating from the bottom of the cell culture flask, 4.5 mL of new complete medium was added to terminate the digestion. After pipetting the cell suspension evenly, 1/5 of the cell suspension was kept and added with 4 mL of new complete medium, and after pipetting evenly, the cell flask was placed in the cell incubator for further culturing. Cell plating was performed when the cell confluence rate reached about 80% again. For cell plating, 1/5 of the cell suspension was kept for further culturing as in the cell passage method, and the remaining 4/5 of the cell suspension was placed in a 15 mL centrifuge tube, detected for cell viability by Trypan blue exclusion method to ensure that cell viability was above 90%. A cell suspension with a density of 3.33×10^4 viable cells/mL was prepared with complete medium, and 90 μL of such cell suspension was added to a 96-well cell culture plate to obtain a cell density of 3000 viable cells/mL in the cell culture plate. A control group containing no cells, no compound and only complete medium (i.e. culture medium control) and a control group containing no compound but containing cells (i.e. cell control) were set. The cell plate was placed in a cell incubator overnight.
The 10 mM compound stock solution in DMSO was first serially diluted with DMSO at a dilution factor of 3.16 times, to obtain 9 concentrations, and the 10th concentration was set as DMSO control without compound. Then, PBS was used to dilute the DMSO solutions of compounds of different concentrations, at a dilution factor of 100 times, so that the DMSO concentration in the compound solution of each concentration was 1%. Finally, 10 μL of each of the above solutions was added to the corresponding cell culture plate, so that the initial compound concentration was 10 μM, with the remaining concentrations being successively diluted at a dilution factor of 3.16 times, and the DMSO content in the cell culture plate was 0.1%.
The cell plate was placed in a cell incubator and cultured for 72 hours. For endpoint detection, the CellTiter-Glo reagent was melted, and the cell plate was moved to room temperature to equilibrate for 30 minutes, added with 100 μL of CellTiter-Glo for each well, and shaken on an orbital shaker for 5 minutes to fully lyse the cells. […]
(In general: Cellular ATP, detected with luciferase, serves as a proxy for viable cell number.)

The mark [1] stands for this setting: Homo sapiens, KM12, 72 h, Table 1, 72 hours, read-out: KM-12, IC50.
[2] abbreviates: Homo sapiens, KM12, Table 1-2, separate test, read-out: KM-12, IC50.
[3] abbreviates: Homo sapiens, KM12, Table 1-1, separate test, read-out: KM-12, IC50.
Setting [4] is: Homo sapiens, KM12, Table 9, read-out: KM12 cell proliferation inhibitory activity (IC50).

For the compound `Cn1ncc2cc(Oc3ccc(NC(=O)c4ccc(C(F)(F)F)n(-c5ccc(F)cc5)c4=O)cc3F)c(-c3cn[nH]c3)cc21` [Example 1, N-(3-fluoro-4-(1-methyl-6-(1H-pyrazol-4-yl)-1H-indazol-5-yloxy)phenyl)-1-(4-fluorophenyl)-6-trifluoromethyl-2-oxo-1,2-dihydmpyridine-3-carboxamide monomethanesulfonate], under setting [1], the IC50 came out at 15.6 nM.

Consider `Cn1ncc2cc(Oc3ccc(NC(=O)c4ccc(C5CC5)n(-c5ccc(F)cc5)c4=O)cc3F)c(-c3cn[nH]c3)cc21` [Example 2, N-(3-fluoro-4-(1-methyl-6-(1H-pyrazol-4-yl)-1H-indazol-5-yloxy)phenyl)-1-(4-fluorophenyl)-6-cyclopropyl-2-oxo-1,2-dihydmpyridine-3-carboxamide], for which, under setting [1], the IC50 was 9.1 nM.

Regarding `CCn1ncc2cc(Oc3ccc(NC(=O)c4ccc(C)n(-c5ccc(F)cc5)c4=O)cc3F)c(-c3cn[nH]c3)cc21` [Example 3, N-(3-fluoro-4-(1-ethyl-6-(1H-pyrazol-4-yl)-1H-indazol-5-yloxy)phenyl)-1-(4-fluorophenyl)-6-methyl-2-oxo-1,2-dihydmpyridine-3-carboxamide], under setting [1], the IC50 stood at 16.7 nM.

On to `Cc1ccc(C(=O)Nc2ccc(Oc3cc4cnn(C(C)C)c4cc3-c3cn[nH]c3)c(F)c2)c(=O)n1-c1ccc(F)cc1` [Example 4, N-(3-fluoro-4-(1-isopropyl-6-(1H-pyrazol-4-yl)-1H-indazol-5-yloxy)phenyl)-1-(4-fluorophenyl)-6-methyl-2-oxo-1,2-dihydmpyridine-3-carboxamide], for which, under setting [1], the IC50 is 31 nM.

With `CCc1ccc(C(=O)Nc2ccc(Oc3cc4cnn(C)c4cc3-c3cn[nH]c3)c(F)c2)c(=O)n1-c1ccc(F)cc1` [Example 5, N-(3-fluoro-4-(1-methyl-6-(1H-pyrazol-4-yl)-1H-indazol-5-yloxy)phenyl)-1-(4-fluorophenyl)-6-ethyl-2-oxo-1,2-dihydropyridine-3-carboxamide], the IC50 under setting [1] was 5.1 nM.

With `CC(C)c1ccc(C(=O)Nc2ccc(Oc3cc4cnn(C)c4cc3-c3cn[nH]c3)c(F)c2)c(=O)n1-c1ccc(F)cc1` [Example 6, N-(3-fluoro-4-(1-methyl-6-(1H-pyrazol-4-yl)-1H-indazol-5-yloxy)phenyl)-1-(4-fluorophenyl)-6-isopropyl-2-oxo-1,2-dihydropyridine-3-carboxamide], the IC50 under setting [1] amounted to 6.3 nM.

As to `CSc1ccc(C(=O)Nc2ccc(Oc3cc4cnn(C)c4cc3-c3cn[nH]c3)c(F)c2)c(=O)n1-c1ccc(F)cc1` [Example 11, N-(3-fluoro-4-(1-methyl-6-(1H-pyrazol-4-yl)-1H-indazol-5-yloxy)phenyl)-1-(4-fluorophenyl)-6-methylthio-2-oxo-1,2-dihydropyidine-3-carboxamide], the IC50 under setting [2] amounted to 35 nM.

For `COc1ccc(C(=O)Nc2ccc(Oc3cc4cnn(C)c4cc3-c3cn[nH]c3)c(F)c2)c(=O)n1-c1ccc(F)cc1` [Example 12, N-(3-fluoro-4-(1-methyl-6-(1H-pyrazol-4-yl)-1H-indazol-5-yloxy)phenyl)-1-(4-fluorophenyl)-6-methoxy-2-oxo-1,2-dihydropyridine-3-carboxamide], the IC50 under setting [3] was found to be 16 nM.

Consider `CCOc1ccc(C(=O)Nc2ccc(Oc3cc4cnn(C)c4cc3-c3cn[nH]c3)c(F)c2)c(=O)n1-c1ccc(F)cc1` [Example 14, N-(3-fluoro-4-(1-methyl-6-(1H-pyrazol-4-yl)-1H-indazol-5-yloxy)phenyl)-1-(4-fluorophenyl)-6-ethoxy-2-oxo-12-dihydropyridine-3-carboxamide], for which the IC50 under setting [2] came to 24 nM.

Consider `Cn1ncc2cc(Oc3ccc(NC(=O)c4ccc(OC5CC5)n(-c5ccc(F)cc5)c4=O)cc3F)c(-c3cn[nH]c3)cc21` [Example 15, N-(3-fluoro-4-(1-methyl-6-(1H-pyrazol-4-yl)-1H-indazol-5-yloxy)phenyl)-1-(4-fluorophenyl)-6-cyclopropoxy-2-oxo-1,2-dihydropyridine-3-carboxamide], for which the IC50 under setting [2] was determined as 17 nM.

In the case of `CC(C)Oc1ccc(C(=O)Nc2ccc(Oc3cc4cnn(C)c4cc3-c3cn[nH]c3)c(F)c2)c(=O)n1-c1ccc(F)cc1` [Example 16, N-(3-fluoro-4-(1-methyl-6-(1H-pyrazol-4-yl)-1H-indazol-5-yloxy)phenyl)-1-(4-fluorophenyl)-6-isopropoxy-2-oxo-1,2-dihydropyridine-3-carboxamide], the IC50 under setting [2] was 7 nM.

As to `CCc1ccc(C(=O)Nc2ccc(Oc3cc4cnn(CC)c4cc3-c3cn[nH]c3)c(F)c2)c(=O)n1-c1ccc(F)cc1` [Example 18, N-(3-fluoro-4-(1-ethyl-6-(1H-pyrazol-4-yl)-1H-indazol-5-yloxy)phenyl)-1-(4-fluorophenyl)-6-ethyl-2-oxo-1,2-dihydropyridine-3-carboxamide], the IC50 under setting [3] came out at 32 nM.

For `CCn1ncc2cc(Oc3ccc(NC(=O)c4ccc(C5CC5)n(-c5ccc(F)cc5)c4=O)cc3F)c(-c3cn[nH]c3)cc21` [Example 19, N-(3-fluoro-4-(1-ethyl-6-(1H-pyrazol-4-yl)-1H-indazol-5-yloxy)phenyl)-1-(4-fluorophenyl)-6-cyclopropyl-2-oxo-1,2-dihydropyridine-3-carboxamide], under setting [3], the IC50 amounted to 32 nM.

For the compound `CCn1ncc2cc(Oc3ccc(NC(=O)c4ccc(OC)n(-c5ccc(F)cc5)c4=O)cc3F)c(-c3cn[nH]c3)cc21` [Example 23, N-(3-fluoro-4-(1-ethyl-6-(1H-pyrazol-4-yl)-1H-indazol-5-yloxy)phenyl)-1-(4-fluorophenyl)-6-methoxy-2-oxo-1,2-dihydropyridine-3-carboxamide], under setting [3], the IC50 was 32 nM.

Turning to `CCOc1ccc(C(=O)Nc2ccc(Oc3cc4cnn(CC)c4cc3-c3cn[nH]c3)c(F)c2)c(=O)n1-c1ccc(F)cc1` [Example 24, N-(3-fluoro-4-(1-ethyl-6-(1H-pyrazol-4-yl)-1H-indazol-5-yloxy)phenyl)-1-(4-fluorophenyl)-6-ethoxy-2-oxo-12-dihydropyridine-3-carboxamide], where the note is “Table 1-3, separate test, read-out: KM-12, IC50”, the IC50 was determined as 23 nM.

`CCn1ncc2cc(Oc3ccc(NC(=O)c4ccc(OC(C)C)n(-c5ccc(F)cc5)c4=O)cc3F)c(-c3cn[nH]c3)cc21` [Example 26, N-(3-fluoro-4-(1-ethyl-6-(1H-pyrazol-4-yl)-1H-indazol-5-yloxy)phenyl)-1-(4-fluorophenyl)-6-isopropoxy-2-oxo-1,2-dihydropyridine-3-carboxamide]: the IC50 (Homo sapiens, KM12, Table 1-3, separate test, read-out: KM-12, IC50) is 18 nM.

For the compound `COc1ccc(C(=O)Nc2ccc(Oc3cc4cnn5c4c(c3-c3cn[nH]c3)CC5)c(F)c2)c(=O)n1-c1ccc(F)cc1` [Example 28, N-(4-((5-(1H-pyrazol-4-yl)-6,7-dihydropyrrolo[3,2,1-hi]-indazol-4-yl)oxy)-3-fluorophenyl)-1-(4-fluorophenyl)-6-methoxy-2-oxo-1,2-dihydropyidine-3-carboxamide], under setting [4], the IC50 was 56 nM.

Turning to `Cc1ccc(C(=O)Nc2ccc(Oc3cc4cnn5c4c(c3-c3cn[nH]c3)CC5)c(F)c2)c(=O)n1-c1ccc(F)cc1` [Example 31, N-(4-((5-(1H-pyrazol-4-yl)-6,7-dihydropyrrolo[3,2,1-hi]-indazol-4-yl)oxy)-3-fluorophenyl)-1-(4-fluorophenyl)-6-methyl-2-oxo-1,2-dihydropyridine-3-carboxamide], the IC50 under setting [4] came to 71 nM.

Regarding `CCOc1ccc(C(=O)Nc2ccc(Oc3cc4cnn5c4c(c3-c3cn[nH]c3)CC5)c(F)c2)c(=O)n1-c1ccc(F)cc1` [Example 32, N-(4-((5-(1H-pyrazol-4-yl)-6,7-dihydropyrrolo[3,2,1-hi]-indazol-4-yl)oxy)-3-fluorophenyl)-6-ethoxy-1-(4-fluorophenyl)-2-oxo-12-dihydropyridine-3-carboxamide], the IC50 under setting [4] stood at 67 nM.
